From patent US20220087946A1, “COMPOSITIONS, METHODS, SYSTEMS AND/OR KITS FOR PREVENTING AND/OR TREATING NEOPLASMS” (Research Cancer Institute of America, priority 2017, published 2022)

Assays:
[1] = cited from earlier work
OVCAR 3 Cancer cells = test: Nano formulations in animals with implanted tumor: side effects; conditions: mouse, in vivo
Description: Animals—Immunodeficient, female athymic mice aged 5-6 weeks and weighing between 18 and 20 g were purchased from Taconic Biosciences (Albany, N.Y.). All animal studies were conducted at the animal facility of the Veteran Affairs Medical Center, Albany, N.Y. in accordance with and approved by institutional guidelines for humane animal treatment and according to the current guidelines. Mice were maintained under specific pathogen-free conditions and housed under controlled conditions of temperature (20-24° C.) and humidity (60-70%) and 12 h light/dark cycle with ad libitum access to water and food. Mice were allowed to acclimatize for 5 d prior to the start of study.
Treatment—OVCAR 3 Cancer cells (1×10^6) were implanted subcutaneously in right flank of each animal. In the first set of experiments, control, free Quercetin (3 mg/kg), NPS-quercetin(3 mg/kg), and FA-NPs-quercetin (3 mg/kg) were injected subcutaneously to the mice everyday (for 14 days). The control was PBS, after humane sacrifice of animals at 14 days, tumors were harvested and amount of QC was measured.

**Q.** Which water solubility [1] does the source give for `O=c1c(O)c(-c2ccc(O)c(O)c2)oc2cc(O)cc(O)c12` [Quercetin, quercetin] here?
**A.** not water soluble

**Q.** What about the “adverse toxic effect on the health of tumor bearing mice” value (OVCAR 3 Cancer cells) of the same compound?
**A.** does not have any adverse toxic effect
